Data published in patent US10973803B2, “Sodium salt of N-((1,2,3,5,6,7-hexahydro-s-indacen-4-yl)carbamoyl)-1-isopropyl-1H-pyrazole-3-sulfonamide” (INFLAZOME LIMITED, priority 2018, dated 2021).

How the values were obtained:
[1] = thermodynamic aqueous solubility measured in water
[2] = stability in aqueous media; assay type: physicochemical; details: 0.2 mg/ml; for stability in aqueous media (in words): 50° C. and room temperature; for Stability in aqueous media (24 hrs at 50° C.) / Stability in aqueous media (24 hrs at room temperature): sodium salt in water, free acid in 1:1 water and acetonitrile; for Stability in aqueous media (24 hrs at 50° C.): amber vial
Method: To measure the stability in aqueous media, the sodium salt was dissolved in water at a concentration of 0.2 mg/ml. Due to the very poor aqueous solubility of the free acid, the free acid was dissolved in a 1:1 mixture of water and acetonitrile at the same concentration of 0.2 mg/ml. Samples were kept at 50° C. in an amber vial and at room temperature in an amber vial as well as a clear vial.

[3] = XRPD after storage at elevated temperature and humidity (stability of polymorphic form); assay type: physicochemical
Method: X-Ray Powder Diffraction (XRPD), Ion Chromatography (IC), Karl Fischer titration (KF), Thermogravimetric Analysis (TGA), Differential Scanning Calorimetry (DSC) and high performance liquid chromatography (HPLC) techniques referred to in the examples were carried out under the following conditions: XRPD diffractograms were collected on a Bruker D8 diffractometer using CuKα radiation (40 kV, 40 mA) and a θ-2θ goniometer fitted with a Ge monochromator. The incident beam passed through a 2.0 mm divergence slit followed by a 0.2 mm antiscatter slit and knife edge. The diffracted beam passed through an 8.0 mm receiving slit with 2.5° Soller slits followed by the Lynxeye Detector. The software used for data collection and analysis was Diffrac Plus XRD Commander and Diffrac Plus EVA respectively. Samples were run under ambient conditions as flat plate specimens using powder as received. The sample was prepared on a polished, zero-background (510) silicon wafer by gently pressing onto the flat surface or packed into a cut cavity.
The XRPD spectra shown in FIG. 1 were obtained directly after preparation of the product, after storage for 1 week and for 5 weeks at 40° C. and 75% relative humidity, and after storage for 1 week and for 5 weeks at 25° C. and 97% relative humidity.
The XRPD spectra shown in FIG. 3 were obtained directly after preparation of the product, after storage for 1 week at 40° C. and 75% relative humidity, and after storage for 1 week at 25° C. and 97% relative humidity.

[4] = intrinsic dissolution rate (US Pharmacopoeia, chapter 1087); assay type: physicochemical
Method: The intrinsic dissolution rate was measured by the procedure set out in the US Pharmacopoeia, chapter 1087.

physchem = details: water, thermodynamic from solid

Row | Structure (SMILES) | resulting pH of aqueous solution ([1]; in water at solubility of 81 mg/ml) | stability in aqueous media (in words) [2] | Stability in aqueous media (24 hrs at 50° C.) [2] | Stability in aqueous media (24 hrs at room temperature) [2] | stability with respect to conversion into other polymorphic forms (XRPD) ([3]; storage 1 week and 5 weeks at 40° C. and 75% relative humidity, and 1 week and 5 weeks at 25° C. and 97% relative humidity) | Intrinsic dissolution rate (at pH 2) [4] | intrinsic dissolution rate relative to that of the free acid ([4]; sodium salt versus free acid) | solubility (physchem) | polymorphic form stability on storage at elevated humidity (XRPD) ([3]; 1 week at 25° C. and 97% relative humidity) | polymorphic form stability on storage at elevated temperature (XRPD) ([3]; 1 week at 40° C. and 75% relative humidity) | Aqueous Solubility ([1]; thermodynamic, in water) | solubility ([1]; water, thermodynamic from solid)
1 | CC(C)n1ccc(S(=O)(=O)NC(=O)Nc2c3c(cc4c2CCC4)CCC3)n1.O.[Na] [Example 2, N-((1,2,3,5,6,7-hexahydro-s-indacen-4-yl)carbamoyl)-1-isopropyl-1H-pyrazole-3-sulfonamide monosodium monohydrate] | 9.7 | stable in aqueous media | 2.7% degradation | No significant | shows stability with respect to conversion into other polymorphic forms | 10 μg/min · mm^2 | at least twice as high | 81 mg/mL |  |  |  | 
2 | CC(C)n1ccc(S(=O)(=O)NC(=O)Nc2c3c(cc4c2CCC4)CCC3)n1.[Na] [Example 3, N-((1,2,3,5,6,7-hexahydro-s-indacen-4-yl)carbamoyl)-1-isopropyl-1H-pyrazole-3-sulfonamide monosodium anhydrate] |  |  |  |  |  |  |  |  | converts to the monosodium monohydrate (Form 1) | stable at elevated temperature |  | 
3 | CC(C)n1ccc(S(=O)(=O)NC(=O)Nc2c3c(cc4c2CCC4)CCC3)n1 [Comparative Example 1, N-((1,2,3,5,6,7-hexahydro-s-indacen-4-yl)carbamoyl)-1-isopropyl-1H-pyrazole-3-sulfonamide free acid, reference compound] |  | unstable | 94% degradation | 37% degradation |  | 4 μg/min · mm^2 |  |  |  |  | <0.5 mg/mL | < 0.5 mg/mL
